Bridges are numbered along the chain shown (N, C = ends). Where no end group is shown, it is not given here.
Target: T1, bovine trypsin (Bos taurus, UniProt P00760)
T1 construct: purchased Sigma-Aldrich
T1 sequence (P00760 24-246): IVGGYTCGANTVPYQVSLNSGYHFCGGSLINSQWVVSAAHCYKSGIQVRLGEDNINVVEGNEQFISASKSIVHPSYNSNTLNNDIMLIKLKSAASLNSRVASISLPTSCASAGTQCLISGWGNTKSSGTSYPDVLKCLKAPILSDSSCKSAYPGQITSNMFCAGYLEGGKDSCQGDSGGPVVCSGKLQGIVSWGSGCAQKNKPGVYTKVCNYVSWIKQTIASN
Test: Inhibition kinetics with bovine trypsin (BApNA substrate)
Type: biochemical
Procedure: Michaelis-Menten constant (Km) for trypsin was calculated by using various concentrations of BApNA substrate (1 to 5 mM), and then plotting double reciprocal curve with 1/(v) and 1/[S]. The kinetic properties of IRDs were analysed over a range of concentration of inhibitors (1 μM to 1 mM). IC50 values for each inhibitor were calculated from the sigmoid curve indicating the best fit for the percentage inhibition data obtained. The values of Ki values for each inhibitor were calculated directly from IC50 values using Cheng-Prusoff's classical equation (Copeland et al., 1995).

In the case of “QPICTNSSAGLKGCNYYNADGTFICEGESDPNHPKACPKNCDPNIAYSLC (disulfide 4-41, 14-50; cysteines drawn unpaired) [IRD-9]”, the Ki (calculated from IC50 by Cheng-Prusoff's equation, read-out: Inhibition constant (Ki)) is reported as ~2200 nM and the IC50 (substrate BApNA 1 mM, FIG. 2C) is reported as ~2200 nM.

From US9357777B2, “Method for effective management of helicoverpa armigera” (priority 2012, dated 2016)
